Reference: patent US20190090458A1, “DEVICE FOR OBTAINING AGE/SIZE-MATCHED NEMATODES AND METHODS OF USE” (University of Alaska, Fairbanks, priority 2017, published 2019)

Tests used:
sod-3::gfp = sod-3::gfp fluorescent reporter stress response assay; assay type: in vivo, C. elegans; settings: 100 μM paraquat, positive control; strain CF1553; p<0.05
Procedure: Three commonly used fluorescent reporter assays were performed to detect potential markers of stress: a DAF-16::GFP translocation into the nuclei of cells in a strain [TJ356-zIs356 (pDAF-16::DAF-16-GFP;rol-6)]; an hsp-16.2 expression [TJ375-gpls 1 (hsp-16.2p::GFP)]; and a sod-3 expression [CF1553-muIs84([pAD76]sod-3p::GFP+rol-6[su1006])]. Henderson, S. T., Johnson, T. E. daf-16 integrates developmental and environmental inputs to mediate aging in the nematode Caenorhabditis elegans. Current Biology. 11 (24), 1975-1980 (2001); Rea, S. L., Wu, D., Cypser, J. R., Vaupel, J. W., Johnson, T. E. A stress-sensitive reporter predicts longevity in isogenic populations of Caenorhabditis elegans. Nature Genetics. 37 (8), 894-898 (2005); and, Libina, N., Berman, J. R., Kenyon, C. […]
At day 3 of adulthood, the nematodes were harvested with an eyelash pick and mounted to a coverslip with 1 μL of a 36% poloxamer 407 surfactant solution to immobilize the nematodes. […] Differences in the fluorescent localization between the three groups was recorded and results compared using an ordinal logistics statistical model in statistical analysis software (DAF-16::GFP assay) and for the hsp-16.2 and the sod-3 expression assays, a one-way ANOVA with α=0.05 and Tukey's post hoc tests with α=0.05 was used to compare the total fluorescence of the head region. […]

C. elegans [1] = assay: Pharyngeal pump rate; assay type: in vivo; settings: 100 μM FUDR in NGM; days 6 and 8 of adulthood; p<0.001
Procedure: (§1) The three groups tested were separated by: 1) individual picking, wherein nematodes were selected and transferred manually using a platinum loop; 2) the chemical treatment fluorodeoxyuridine (FUDR), wherein 100 mg/mL FUDR was added to the NGM media to a final concentration of 100 μM to prevent any progeny production, and then the nematodes were transferred every other day to a fresh NGM plate to avoid food depletion; and, 3) the device of Example 1.
The ability of C. elegans' pharyngeal muscles to pump declines with age and is another biomarker of healthspan. To determine if the present filter membrane device influenced the nematodes' pharyngeal pump rate, the three treatment groups were compared on days 2, 4, 6, and 8 of adulthood (n=8 to 10 per group). The grinder movement of the nematode's terminal pharyngeal bulb was visually counted under a stereomicroscope at a 600× final magnification for 1 minute, wherein a statistical analysis with a one-way ANOVA with α=0.05 and Bonferroni post-tests with α=0.05 was performed.

C. elegans [2] = assay: Motility assay (motility class scoring); assay type: in vivo; settings: 100 μM FUDR in NGM; days 2, 4, 6 and 8 of adulthood; p>0.05
Procedure: as §1
In C. elegans the normal sinusoidal movement (i.e., motility) declines with age and is a marker of overall health. To determine if the present device influenced motility, motility scores were compared for pick, FUDR, and present filter membrane device treatment groups on days 2, 4, 6, and 8 of adulthood. The mobility assay was performed as disclosed by Hendon et al. Stochastic and genetic factors influence tissue-specific decline in ageing C. elegans. Nature. 419 (6909), 808-814 (2002). The nematodes were assigned a motility score and assigned to a class (A, B, or C). Class A individuals move spontaneously in a normal, sinusoidal pattern. Class B individuals move in markedly non-sinusoidal movements and may require prodding to encourage movement. Class C individuals move their head and/or tail in response to prodding but are unable to move across the agar.

C. elegans [3] = assay: Gentle touch response (anterior and posterior); assay type: in vivo; settings: 100 μM FUDR in NGM; any day of testing (days 2, 4, 6, 8); p>0.4
Procedure: as §1
Response to mechanical stimulus is a physiological marker to assess aging or general health; thus, the impact of different transfer methods on both the anterior and the posterior gentle touch responses were tested. Responses to a gentle touch were compared between the three treatment groups, wherein the assay was performed based on the methods described by Calixto et al. Enhanced neuronal RNAi in C. elegans using SID-1. Nature Methods. 7 (7), 554-559 (2010). The anterior and posterior touch response was recorded by gently stroking an eyelash pick perpendicularly across the tail or the head (5× each, alternating head and tail) of the animals. Any movement in the opposite direction of the stroke was scored as 1 point on a scale of 0 to 5 for both the anterior and the posterior response. A statistical analysis with a one-way ANOVA with α=0.05 and Bonferroni post-tests with α=0.05 was conducted using the recorded scored.

C[n+]1ccc(-c2cc[n+](C)cc2)cc1 [paraquat] was tested, and the “SOD-3 expression (sod-3::gfp fluorescence of head region) versus pick and device groups” value (sod-3::gfp) was “high expression of sod-3::gfp”.

In the case of O=c1[nH]c(=O)n([C@H]2C[C@H](O)[C@@H](CO)O2)cc1F [FUDR, 5-fluorodeoxyuridine], the “pharyngeal pump rate, FUDR versus picking group” value (C. elegans [1]) was “significant difference”, the “motility class distribution compared with pick and device groups” value (C. elegans [2]) was “no difference” and the “anterior and posterior gentle touch response compared with pick and device groups” value (C. elegans [3]) was “no statistically significant difference”.
